Earlier results on 16 compounds are cited in US8877755B2, “Dopamine-agonist combination therapy for improving sleep quality” (priority 2004, dated 2014).

Counter-ions that a name gives are not always drawn. Like-named read-outs stand apart in the source and are kept apart here. Where only a bound is given, the exact number is not on record here.

The conditions of data set [1]: in vivo.
The conditions of data set [2]: in vivo. The source holds these as a separate data set.
Assay in data set [3]: not given
This is another data set of the same source.

The conditions of data set [4]: L-dopa 100 mg with carbidopa 10 mg, in most cases.
For data set [5] the following is noted: following oral administration.
For data set [6] the following is noted: primates, multiple doses for up to four days.
Assay in data set [7]: not given
This is another data set of the same source.

For data set [8] the following is noted: mice; behavioral depression score <40.
Data set [9] addresses GABA:2-oxo-glutarate aminotransferase (Homo sapiens, UniProt P80404). Conditions: at 10^−3 M.
Data set [10] concerns GABA uptake system. Details: dose or concentration left out as unconfirmed.
The subject of data set [11] is L-glutamate 1-carboxylase. Conditions: at 10^−3 M.
Assay in data set [12]: not given
The source holds these as a separate data set.

For data set [13] the following is noted: in vivo. The source holds these as a separate data set.

GABA:2-oxo-glutarate aminotransferase, sequence (P80404 29-500): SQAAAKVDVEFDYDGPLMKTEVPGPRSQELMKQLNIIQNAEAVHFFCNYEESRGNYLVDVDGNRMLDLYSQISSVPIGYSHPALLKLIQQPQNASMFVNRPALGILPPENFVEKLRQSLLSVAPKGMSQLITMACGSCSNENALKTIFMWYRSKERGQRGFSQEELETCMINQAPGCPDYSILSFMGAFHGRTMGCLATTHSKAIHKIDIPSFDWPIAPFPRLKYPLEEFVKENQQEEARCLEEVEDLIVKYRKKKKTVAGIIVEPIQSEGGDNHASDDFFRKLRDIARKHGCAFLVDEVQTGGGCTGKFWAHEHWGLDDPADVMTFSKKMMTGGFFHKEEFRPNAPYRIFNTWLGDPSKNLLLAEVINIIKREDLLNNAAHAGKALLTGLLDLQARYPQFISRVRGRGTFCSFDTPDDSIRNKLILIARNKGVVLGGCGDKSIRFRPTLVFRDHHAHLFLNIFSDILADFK

In the case of `Oc1ccc(C2CNCCc3c2cc(O)c(O)c3Cl)cc1` (racemic) [racemic fenoldopam, 6-chloro-2,3,4,5-tetrahydro-1-(4-hydroxyphenyl)-1H-3-benzazepine-7,8-diol], in data set [1], the “average clearance (CL)” value was 2.6 L/min and the “half-life (t1/2)” value is reported as 4.6 min.

With `C=CCN1C[C@H](C(=O)N(CCCN(C)C)C(=O)NCC)C[C@@H]2c3cccc4[nH]cc(c34)C[C@H]21` [Cabergoline, 1-[(6-allylergolin-8β-yl)-carbonyl]-1-[3-(dimethylamino)propyl]-3-ethylurea], the half life in data set [2] was ≤ 65 h.

`CC(=O)N(C)c1cccc(-c2ccnc3c(C(=O)c4cccs4)cnn23)c1` [Indiplon, N-methyl-N-(3-{3-[2-thienylcarbonyl]-pyrazolo-[1,5-a]-pyrimidin-7-yl}-phenyl)acetamide]: the half-life in vivo result was “approximately 1.3 hours”. The “resulting pH of water solution” value in data set [3] (at 20-30 μg/ml in water) is recorded as “approximately 8.0”.

Regarding `N[C@@H](Cc1ccc(O)c(O)c1)C(=O)O` [L-dopa], the “effect on RLS” value in [4] is listed as “completely suppresses RLS”.

For `CCN(C(C)=O)c1cccc(-c2ccnc3c(C#N)cnn23)c1` [Zaleplon, N-[3-(3-cyanopyrazolo[1,5-a]pyrimidin-7-yl)phenyl]-N-ethylacetamide], in data set [5], the “time to peak plasma concentration” value is 1 h.

Regarding `CN1CCc2cccc3c2[C@H]1Cc1ccc(O)c(O)c1-3` [apomorphine HCl], in data set [6], the “doses without major adverse effects” value is 0.1 to 0.4 mg/kg. Also, the tolerated dose entry in data set [7] (single bolus subcutaneous injection, mammals) is reported as “up to 13 mg/kg”.

On to `CN1CCc2cccc3c2[C@H]1Cc1ccc(O)c(O)c1-3` [apomorphine, (R)-5,6,6a,7-tetrahydro-6-methyl-4H-dibenzo-[de,g]quinoline-10,11-diol], for which the “tolerated dose, continuous infusion” value in data set [7] (continuous infusion for 14 days) is 420 µg/kg/h. For the same compound, the “minimally lethal dose, continuous infusion” value in data set [7] (over the course of the 14 day study) is 1,500 μg/kg/hr.

Turning to `CN1C(=O)CN=C(c2ccccc2)c2cc(Cl)ccc21` [diazepam], the ED100 in [8] is 50 mg/kg.

On to `Oc1noc2c1CCNC2` [gaboxadol, 4,5,6,7-tetrahydroisoxazolo[5,4-c]pyridin-3-ol], for which the “interaction with GABA:2-oxo-glutarate aminotransferase” value in data set [9] is “did not interact”. Further, in data set [10], the “interaction with GABA uptake system” value is “did not interact”. Besides, in [11], the “interaction with L-glutamate 1-carboxylase” value is given as “did not interact”.

For `CCC1(c2ccccc2)CCC(=O)NC1=O` (centres unmarked) [glutethimide], the ED100 in data set [8] is 300 mg/kg.

In the case of `O=C(CCCN1CCC(O)(c2ccc(Cl)cc2)CC1)c1ccc(F)cc1` [haloperidol], the ED100 in [8] was 10 mg/kg.

Consider `CCCC(C)(COC(N)=O)COC(N)=O` [meprobamate], for which the ED100 in [8] was 300 mg/kg.

Turning to `CN1C[C@@H](NS(=O)(=O)N(C)C)C[C@@H]2c3cccc4c3c(cn4C)C[C@H]21` [mesulergine, N′-(1,6-dimethylergolin-8α-yl)-N,N-dimethylsulfamide], the half-life in vivo entry in data set [12] was “approximately 2 hr”. The “solubility in water” value in [3] (hydrochloride salt) was “soluble in water”.

With `CCCC(C)C1(CC)C(=O)NC(=O)NC1=O` (centres unmarked) [pentobarbital], in data set [8], the ED100 is listed as 100 mg/kg.

Regarding `COC(=O)[C@H]1[C@H]2C[C@@H]3c4[nH]c5cc(OC)ccc5c4CCN3C[C@H]2C[C@@H](OC(=O)c2cc(OC)c(OC)c(OC)c2)[C@@H]1OC` [reserpine], in data set [8], the ED100 is 50 mg/kg.

Consider `Cc1ccc(-c2nc3ccc(C)cn3c2CC(=O)N(C)C)cc1` [zolpidem, N,N,6-trimethyl-2-(4-methylphenyl)-imidazo[1,2-s]pyridine-3-acetamide], for which, in data set [13], the “elimination half-life (mean)” value was 2.4 h.
